Test results as given in paper PMC11226541 (Cancer Medicine, 2024).
Like-named read-outs stand apart in the source and are kept apart here. Values belong to the compound of their own block, whether it stands above or below them.

Tests used:
[1] = Pharmacokinetics of TMZ in plasma (combination with pamiparib); assay type: in vivo; details: human, po, read-out: mean plasma concentration of TMZ 1 h after oral administration
Experimental: (§1) PK of pamiparib and TMZ were assessed in blood samples collected at various timepoints following administration (pamiparib: ≤30 min before dosing, 1 h ± 15 min, 2 h ± 30 min, and 4 h ± 30 min after pamiparib dose on cycle 1 Day 1 and cycle 1 Day 15; TMZ: on cycle 1 Day 1 and Day 7 at ≤30 min before dosing and 1 h ± 15 min after TMZ dose). Parameters for pamiparib included the maximum observed plasma concentration (Cmax), lowest concentration reached before the next administered dose (Ctrough), half‐life (T1/2), and time to reach peak plasma concentration (Tmax). Biomarkers were analyzed in blood samples, processed into serum, plasma, and cell fractions for the analysis of germline mutations and circulating markers. Available archival or fresh tumor tissue samples were analyzed at a central laboratory. Tumor tissue was sent either as a formalin‐fixed, paraffin‐embedded block with tumor tissue (preferred) or as approximately 10 unstained slides.

[2] = test system: patients with locally advanced and metastatic solid tumors; test: Dose-limiting toxicities, MTD and RP2D, dose-escalation stage (modified 3 + 3); assay type: in vivo, human; details: QD, with pamiparib 60 mg BID
From the text: AEs were coded using MedDRA v25.0 or higher.

recurrent glioblastoma = test system: recurrent glioblastoma; design: method as in PMID 32347934; details: combination with TMZ; cited from earlier work
[3] = test system: triple-negative breast cancer with germline BRCA1/2 mutations; design: method as in PMID 36459284; details: monotherapy, TNBC patients with germline BRCA1/2 mutations; cited from earlier work
[4] = design: method as in PMID 32652442; details: cited from earlier work
[5] = test system: BRCA1/2-mutated ovarian cancer; design: method as in PMID 34844979; details: monotherapy, cited from earlier work
[6] = Pharmacokinetics of pamiparib in plasma (combination with TMZ); assay type: in vivo, human; details: for concentration at 2 h: read-out: geometric mean pamiparib concentration at 2 h post dose
Experimental: as §1

[7] = test system: advanced or metastatic solid tumors; details: cited from earlier work
advanced malignancies = test system: advanced malignancies; design: method as in PMID 36136304; details: combination with TMZ, related AEs; cited from earlier work

SMILES: Cn1nnc2c(C(N)=O)ncn2c1=O [TMZ, Temozolomide]
concentration at 1 h ([1]; cycle 1 Day 1, 20-mg dose): 338 ng/mL
concentration at 1 h ([1]; cycle 1 Day 1, 120-mg dose): 1510 ng/mL
RP2D of TMZ ([2]; 7-day pulsed): 60 mg
maximum tolerated dose of TMZ ([2]; 7-day pulsed): 60 mg
maximum tolerated dose of TMZ ([2]; continuous): 20 mg

SMILES: O=C(c1cc(Cc2n[nH]c(=O)c3ccccc23)ccc1F)N1CCN(C(=O)C2CC2)CC1 [olaparib]
Grade 3/4 neutropenia (recurrent glioblastoma): 13%
Grade 3/4 thrombocytopenia (recurrent glioblastoma): 25%

geometric mean AUC0-4 at steady state relative to single-dose pamiparib administration ([6]; combination with TMZ): approximately twice
concentration at 2 h ([6]; human, plasma, oral, cycle 1 Day 1, combination with TMZ): 1580 ng/mL
concentration at 2 h ([6]; human, plasma, oral, cycle 1 Day 15, combination with TMZ): 3480 ng/mL
AUC(0-t) ([6]; human, plasma, oral, steady state with combination TMZ therapy (cycle 1 Day 15), pamiparib 60 mg BID, read-out: pamiparib geometric mean AUC0-4): 11100 ng·h/mL
Cmax ([6]; oral, pamiparib 60 mg BID with TMZ, human plasma, n/N 20/20, read-out: Cmax – mean (SD)): 2010 ng/mL
Tmax ([6]; oral, pamiparib 60 mg BID with TMZ, human plasma, n/N 20/20, read-out: Tmax – mean (SD)): 4 h
AUC0-4, SS – geometric mean ([6]; pamiparib 60 mg BID with TMZ, steady state, cycle 1, day 15, human plasma, n/N 8/20): 11,119 h*ng/mL
Ctrough, SS – mean (SD) ([6]; pamiparib 60 mg BID with TMZ, steady state, cycle 1, day 15, human plasma, n/N 14/20): 2,934 (2346) ng/mL
SMILES: C[C@]12CCCN1CC1=NNC(=O)c3cc(F)cc4[nH]c2c1c34 [pamiparib, Pamiparib]
ORR [3]: 38.2%
brain penetration ([4]; mice and rats): strong brain penetration
drug exposure in the brain ([4]; mice): higher drug exposure in the brain compared with other PARP inhibitors
ORR ([5]; BRCA1/2-mutated platinum-resistant ovarian cancer): 31.6%
ORR ([5]; BRCA1/2-mutated platinum-sensitive ovarian cancer): 64.6%
RP2D of pamiparib ([7]; administered orally, BID): 60 mg
ORR ([7]; monotherapy, advanced or metastatic solid tumors): 27.3%

SMILES: Cn1ncnc1[C@H]1c2n[nH]c(=O)c3cc(F)cc(c23)N[C@@H]1c1ccc(F)cc1 [talazoparib]
Grade 3/4 neutropenia (advanced malignancies): 28%
Grade 3/4 thrombocytopenia (advanced malignancies): 33%
